Assay results: patent publication US7687079B2, “Methods of treating ileus” (priority 2002, dated 2010)
Entries after “also recorded” stand apart in the source; their conditions may differ.

Legend:
[1] = tested on: TNFα mRNA; experiment: TNFα mRNA expression in muscularis externae of intestinal grafts (real time RT-PCR); format: in vivo, rat; details: SITx recipients treated with CO, 4 hours after reperfusion
Experimental: (§1) The effects of inhalation of CO on transplant-induced pro-inflammatory and anti-inflammatory gene expression was assessed in muscularis extracts by RT-PCR. Muscularis extemae was collected from normal intestine and transplanted grafts 4 hours postoperatively and snap frozen in liquid nitrogen. This time point falls within the range of maximum inflammatory mediator expression that occurs between 3 and 6 hours following abdominal incision. Total RNA extraction was performed using the guanidium-thiocyanate phenol-chloroform extraction method as described previously (Eskandari et al., Am. J. Clin. Pathol. 75(3):367-370 (1997)). RNA pellets were resuspended in RNA-secure resuspension solution (Ambion Inc., Austin, Tex.), followed by removal of potentially contaminating DNA by treatment with DNase I (DNA-Free Kit, Ambion Inc., Austin, Tex.). Equal aliquots (5 μg) of total RNA from each sample were quantified by spectrophotometry (wavelength […]) and aliquoted at a concentration of 40 ng/μl. Peak mRNA expression was quantified in duplicate by SYBR Green two-step, real-time RT-PCR. […] Real-time PCR data were plotted as the ΔRn, fluorescence signal versus the cycle number. […] Quantification of mRNA expression was normalized to GAPDH and calculated relative to control using the comparative CT method (Schmittgen et al., J. Biochem. Biophys. Methods 46(1-2):69-8 (2000)). […]

[2] = tested on: IL-1β protein; experiment: IL-1β protein release from muscularis extracts (ELISA); format: in vivo, mouse
Experimental: (§2) Protein and Nitric Oxide Determinations. The small bowel of control and mice subjected to intestinal manipulation was removed under sterile conditions, 4 or 24 hours post-operatively, leaving the colon in situ. The small intestine was transferred to a beaker containing chilled Hanks balanced salt solution (Sigma, St. Louis, Mo.) with 200 U/ml penicillin G and 200 μg/ml streptomycin (HBSS), the lumen flushed, and the tissue transferred to a second beaker of HBSS. The muscularis was harvested as described above for real time RT-PCR. Tissues were maintained under sterile conditions at 3 to 5° C. throughout the harvesting procedure. Isolated muscularis was blotted onto sterile gauze, and the wet weight determined to obtain aliquots of 40 to 60 mg. Tissue aliquots were washed twice in HBSS, transferred to 35 mm well culture plates containing 3 ml of serum-free DMEM containing penicillin/streptomycin, and incubated for 24 hrs in a humidified 5% CO2 incubator at 37° C. Pharmacological agents added to the culture medium were filter sterilized prior to use.
After the incubation period, the muscle tissue was pelleted, and aliquots of culture medium were frozen in liquid nitrogen and stored at −80° C. The levels of IL-6, IL-1β, PGE2, and IL-10 proteins secreted into the culture medium were determined using commercially available ELISA kits (R&D Systems, Minneapolis, Minn.) according to the manufacturer's instructions. Nitric oxide (NO) released into the culture medium was estimated by measuring the stable end products of NO metabolism. Nitrate/nitrate levels were measured 24 hrs postoperatively using commercially available test kit (Oxford Biomedical Research, Oxford, Mich.) and quantified according to the manufacturer's directions. In this assay system, nitrate is reduced to nitrite using granulated cadmium, and the total nitrite concentration is subsequently measured using the Griess reaction. All measurements were normalized to tissue wet weight.

[3] = tested on: PGE2; experiment: PGE2 release from muscularis extracts (marker of COX-2 activity); format: in vivo, mouse; details: 24 hr
Experimental: as §2, with “Tissue aliquots were washed twice in HBSS, transferred to 35 mm well culture plates containing 3 ml of serum-free DMEM containing penicillin/streptomycin, and incubated for 24 hrs in a humidified 5% CO2 incubator at 37° C. Pharmacological agents added to the culture medium were filter sterilized prior to use.” left out
After the incubation period, the muscle tissue was pelleted, and aliquots of culture medium were frozen in liquid nitrogen and stored at −80° C. The levels of IL-6, IL-1β, PGE2, and IL-10 proteins secreted into the culture medium were determined using commercially available ELISA kits (R&D Systems, Minneapolis, Minn.) according to the manufacturer's instructions. […] Nitrate/nitrate levels were measured 24 hrs postoperatively using commercially available test kit (Oxford Biomedical Research, Oxford, Mich.) and quantified according to the manufacturer's directions. […]

[4] = tested on: MPO-positive leukocytes in intestinal muscularis; experiment: myeloperoxidase histochemistry, leukocyte recruitment into intestinal muscularis after SITx; format: in vivo, rat
Experimental: Muscularis whole mounts were prepared from the mid small intestine collected 24 hours post-operatively. Segments of intestine were immersed in KRB in a Sylgaard™-lined glass dish and pinned without stretching along the mesenteric border. The length and width of the segments were measured with a caliper. The […] was then opened along the mesenteric border and stretched to 150% of the length and 250% of the width. The mucosa and submucosa were removed using fine forceps, and the remaining tissue fixed in 100% denatured ethanol for 30 minutes. […] Tissues were mounted on glass slides using Gel/Mount™ (Biomedia Corp., Foster City, Calif.), cover-slipped and inspected by light microscopy (Nikon FXA, Fryer, Huntley, Ill.) at a magnification of 200×. Numbers of MPO-positive PMN's infiltrating the muscularis extemae were determined from the mean counts collected from five to six adjacent optical fields centered between the mesenteric and anti-mesenteric borders.

[5] = tested on: COX-2 mRNA; experiment: COX-2 mRNA expression in muscularis of transplanted grafts (real time RT-PCR); format: in vivo, rat; details: CO-treated SITx rats, 4 hours after reperfusion
Experimental: as §1

With [C-]#[O+] [CO, carbon monoxide] the TNFα expression [1] was “unchanged”, the IL-1β protein release ([2]; IM + CO vs IM, 24 hr after surgery) was “significantly attenuated” and the “reduction of IL-1β protein release” value ([2]; IM + CO vs IM, extracts harvested 24 hr after surgery) was 60%. The IL-1β protein ([2]; control mice treated with CO) was “no IL-1β protein could be detected”, the “IM-induced PGE2 release” value ([3]; IM + CO) was “no effect” and the PGE2 release ([3]; control muscularis, inhalation of CO alone) was “significant increases; also recorded: significantly increased”. The MPO-positive cells ([4]; CO-treated control rats (unoperated)) was “rare”, the “mean number of MPO positive cells” value ([4]; SITx + CO, 24 hours after SITx, not statistically significant (p=0.08, n=6)) was “decreased” and the Inflammatory infiltrates ([4]; SITx + CO, Table 2) was 21 ± 3.2 /200x field. For the same compound, the “reduction of mean relative COX-2 mRNA expression” value [5] was “approximately 50%”.
